Measured values taken from US20160115540A1, “PRODRUGS AND DRUGS” (Biogen MA Inc., priority 2013, published 2016).
Where a name gives a salt, the structure may show the parent alone.

System: jejunum
Experiment: Transcriptional profiling on Affymetrix GeneChips, single dose, naïve mice: jejunum
Format: in vivo, C57BL/6 mice
Details: jejunum, 100DMF-vs-Veh
Experimental: Treated mice were sacrificed at 2, 7, or 12 hours. Tissues (liver, spleen, kidney, jejunum, cortex, hippocampus, striatum and whole blood) were collected and analyzed by transcriptional profiling on mouse Affymetrix GeneChips.
Tissues (liver, spleen, kidney, jejunum, cortex, hippocampus, striatum and whole blood) were collected and analyzed by transcriptional profiling on mouse Affymetrix GeneChips.
Animals were exposed to CO2 and whole blood collected via cardiac puncture. Two 100 μl aliquots of whole blood were collected in 1.5 mL microcentrifuge tubes and snap frozen in liquid nitrogen. Peripheral (liver, spleen, kidney and jejunum) and CNS brain (cerebellum, hippocampus, striatum and cortex) tissues were harvested and snap frozen in liquid nitrogen, with special care taken to collect tissues of similar size and from the same location. All samples were stored at −80° C. until RNA extraction was conducted.
For RNA preparation, frozen tissues were placed in 2 mL RNAse-free 96-well blocks with 1.5 mL QIAzol Lysis Reagent (QIAgen) and a 3.2 mm stainless steel bead (BioSpec Products, Bartlesville, Okla.). Tissues were disrupted for four cycles of 45 seconds in a Mini-Beadbeater (Biospec Products). RNA was extracted in chloroform and the aqueous phase was mixed with an equal volume of 70% ethanol. Extracted RNA was applied to RNeasy 96 plates and purified by the spin method according to the manufacturer's protocol (RNeasy 96 Universal Tissue Protocol, QIAgen, Hilden Germany).
Automated sample amplifications and biotin labelings were carried out using the NuGEN Ovation RNA Amplification system V2 (Cat #3100), Ovation WB reagent (Cat #1300) and Encore Biotin module (Cat #4200) (NuGEN Technologies, Inc, San Carlos, Calif.) according to manufacturer's recommendations using an Arrayplex automated liquid handler (Beckman Coulter, Indianapolis, Ind.). Two micrograms of biotin labeled sscDNA probe were hybridized to Affymetrix GeneChip Affymetrix HT_MG-430_PM plate arrays with modified conditions as described in Allaire et al. Washing and staining of the hybridized arrays were completed as described in the GeneChip Expression analysis technical manual for HT plate arrays using the Genechip® Array Station (Affymetrix, Santa Clara, Calif.) with modifications as described in Allaire et al. The processed GeneChip® plate arrays were scanned using GeneTitan scanner (Affymetrix, Santa Clara, Calif.).
Affymetrix scans were subject to quality control (QC) measures. These tests included a visual inspection of the distribution of raw signal intensities and an assessment of RNA degradation, relative log expression (RLE), and normalized unsealed standard error (NUSE). All sample scans that passed these QC metrics were included in the analysis.
All CEL files were subjected to GC-content-based Robust Multi-array Average (GCRMA) normalization (version 2.20.0) (Irizarry R A, et al. Nucleic Acids Res 2003; 31:e15; Li C, et al. Genome Biol 2001; 2:[…]0032). Expression levels were log (base 2) transformed.
All calculations and analyses were carried out using R (version 2.11.1) and Bioconductor computational tools (Gentleman R. Springer Science+Business Media 2005).

COC(=O)/C=C/C(=O)OC [DMF, dimethyl fumarate]
FC Tox3 (1436600_PM_at) (2 h): 1.70
FC Tsku (1440230_PM_at) (2 h): 1.61
FC Ugt2b5 (1419622_PM_at) (2 h): 3.40
FC Ugt2b35 (1439624_PM_at) (2 h): 3.22
FC Ugt2b36 (1455595_PM_at) (2 h): 2.07
FC Unc5cl (1429950_PM_at) (2 h): −1.53
FC probe 1441046_PM_at (2 h): 1.54
FC probe 1443118_PM_at (2 h): 1.91
FC probe 1444265_PM_at (2 h): 1.75
FC probe 1445980_PM_at (2 h): 2.92
FC probe 1446045_PM_at (2 h): 1.52
FC probe 1447411_PM_at (2 h): 2.88
FC probe 1459091_PM_at (2 h): 1.98
FC 9430069I07Rik (1431672_PM_at) (7 h): 2.76
FC Abcc3 (1428988_PM_at) (7 h): 1.88
FC Acsm5 (1437662_PM_at) (7 h): 1.60
FC Acss2 (1446542_PM_at) (7 h): 1.71
FC Akr1b8 (1448894_PM_at) (7 h): 8.53
FC Akr1c13 (1418672_PM_at) (7 h): 1.61
FC Akr1c19 (1455454_PM_at) (7 h): 2.07
FC Cbr1 (1460196_PM_at) (7 h): 1.65
FC Cbr3 (1427912_PM_at) (7 h): 22.39
FC Ces1e (1419510_PM_at) (7 h): 2.10
FC Ces1f (1424266_PM_s_at) (7 h): 3.58
FC Ces1g (1449486_PM_at) (7 h): 4.67
FC Ddc (1426215_PM_at) (7 h): 1.74
FC G6pd2 (1422327_PM_s_at) (7 h): 1.82
FC G6pdx (1448354_PM_at) (7 h): 1.54
FC Gclc (1424296_PM_at) (7 h): 2.06
FC Gclc (1455959_PM_s_at) (7 h): 1.88
FC Gsr (1421816_PM_at) (7 h): 2.83
FC Gss (1441931_PM_x_at) (7 h): 1.89
FC Gss (1448273_PM_at) (7 h): 1.97
FC Gsta2 (1421040_PM_a_at) (7 h): 5.81
FC Gsta2 (1421041_PM_s_at) (7 h): 1.72
FC Gsta3 (1423436_PM_at) (7 h): 4.27
FC Gsta3 (1423437_PM_at) (7 h): 3.89
FC Gstm1 (1416416_PM_x_at) (7 h): 3.19
FC Gstm1 (1425627_PM_x_at) (7 h): 3.45
FC Gstm1 (1448330_PM_at) (7 h): 3.40
FC Gstm2 (1416411_PM_at) (7 h): 1.58
FC Gstm3 (1427473_PM_at) (7 h): 2.82
FC Gstm3 (1427474_PM_s_at) (7 h): 1.79
FC Gstm4 (1424835_PM_at) (7 h): 3.83
FC Gstm6 (1422072_PM_a_at) (7 h): 1.94
FC Htatip2 (1451814_PM_a_at) (7 h): 1.51
FC Nqo1 (1423627_PM_at) (7 h): 2.31
FC Pir (1429001_PM_at) (7 h): 3.79
FC Setd4 (1425239_PM_at) (7 h): 1.90
FC Setd4 (1435405_PM_at) (7 h): 1.50
FC Setd4 (1460373_PM_a_at) (7 h): 1.50
FC Slc5a4b (1422757_PM_at) (7 h): 1.67
FC Txnrd1 (1424487_PM_x_at) (7 h): 1.60
FC Ugt2b5 (1419622_PM_at) (7 h): 3.42
FC Ugt2b35 (1439624_PM_at) (7 h): 2.66
FC Ugt2b36 (1455595_PM_at) (7 h): 2.23
FC Aldh1a7 (1418601_PM_at) (12 h): 1.65
FC Gstm1 (1416416_PM_x_at) (12 h): 3.56
FC Gstm2 (1416411_PM_at) (12 h): 2.04
